From patent US7074789B2, “Kinase inhibitors” (Amgen Inc., priority 1999, dated 2006) come the findings set out here.

Holding throughout (format): biochemical
One assay has as its target T1, IGFR-1 (Homo sapiens, UniProt P08069).
T1 construct: Kinases are expressed as either kinase domains or full length constructs; made in house
Nature of the assay: Kinase inhibition assay (33P transfer), IGFR-1. As to conditions: Table 2, kinase inhibition class.

The next assay concerns the target T2, Zap-70 (Homo sapiens, UniProt P43403).
T2 construct: Kinases are expressed as either kinase domains or full length constructs; made in house
T2 sequence (P43403 1-619): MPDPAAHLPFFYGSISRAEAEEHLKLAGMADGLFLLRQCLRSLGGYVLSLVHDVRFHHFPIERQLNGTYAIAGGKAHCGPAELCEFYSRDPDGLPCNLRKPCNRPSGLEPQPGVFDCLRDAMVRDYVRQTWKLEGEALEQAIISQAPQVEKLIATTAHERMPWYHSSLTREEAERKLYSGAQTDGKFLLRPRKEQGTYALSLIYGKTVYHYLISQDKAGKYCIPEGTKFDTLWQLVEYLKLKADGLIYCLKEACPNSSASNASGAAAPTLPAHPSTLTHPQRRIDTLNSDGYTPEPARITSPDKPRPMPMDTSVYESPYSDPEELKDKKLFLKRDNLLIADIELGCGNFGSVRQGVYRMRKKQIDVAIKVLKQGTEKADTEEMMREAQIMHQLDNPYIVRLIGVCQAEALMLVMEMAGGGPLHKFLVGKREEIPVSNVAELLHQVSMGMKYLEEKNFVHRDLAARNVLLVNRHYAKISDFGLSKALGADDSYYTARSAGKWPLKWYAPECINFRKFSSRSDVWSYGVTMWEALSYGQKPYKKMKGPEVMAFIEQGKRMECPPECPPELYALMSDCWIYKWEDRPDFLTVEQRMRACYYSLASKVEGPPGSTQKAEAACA
Nature of the assay: Kinase inhibition assay (33P transfer), Zap-70. The note with it: Table 3; read-out: Zap-1. The gist of the method: (§1)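 Filterless plate radiometric format: immobilized poly(Glu,Tyr) 4:1 or poly(Arg,Ser) 3:1, 33P-labelled ATP, tagged recombinant kinase (some with regulatory partners). Incorporated label counted after phosphoric acid wash.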

A further assay addresses T3, Kdr (Homo sapiens, UniProt P35968).
T3 construct: Kinases are expressed as either kinase domains or full length constructs; made in house
As to the kind of experiment: Kinase inhibition assay (33P transfer), Kdr. As to conditions: Table 3; read-out: KDR-1. The gist of the method: as §1

The next assay has as its target T4, EGFR (Homo sapiens, UniProt P00533).
T4 construct: Kinases are expressed as either kinase domains or full length constructs; made in house
Nature of the assay: Kinase inhibition assay (33P transfer), EGFR. As to conditions: Table 2, kinase inhibition class; read-out: EGFR-1. The gist of the method:
(§2)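 Activity read as 33P incorporation from ATP into poly(Glu,Tyr) 4:1 or poly(Arg,Ser) 3:1 substrate bound to microtiter plates, measured by scintillation after acid washing. Enzymes were affinity-purified GST or polyHis fusions (kinase domain or full length) from E. coli or baculovirus; IC50 = 50% reduction in labelled phosphate.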

In the next assay the target is T5, c-Met (Homo sapiens, UniProt P08581).
T5 construct: Kinases are expressed as either kinase domains or full length constructs; made in house
T5 sequence (P08581 25-1390): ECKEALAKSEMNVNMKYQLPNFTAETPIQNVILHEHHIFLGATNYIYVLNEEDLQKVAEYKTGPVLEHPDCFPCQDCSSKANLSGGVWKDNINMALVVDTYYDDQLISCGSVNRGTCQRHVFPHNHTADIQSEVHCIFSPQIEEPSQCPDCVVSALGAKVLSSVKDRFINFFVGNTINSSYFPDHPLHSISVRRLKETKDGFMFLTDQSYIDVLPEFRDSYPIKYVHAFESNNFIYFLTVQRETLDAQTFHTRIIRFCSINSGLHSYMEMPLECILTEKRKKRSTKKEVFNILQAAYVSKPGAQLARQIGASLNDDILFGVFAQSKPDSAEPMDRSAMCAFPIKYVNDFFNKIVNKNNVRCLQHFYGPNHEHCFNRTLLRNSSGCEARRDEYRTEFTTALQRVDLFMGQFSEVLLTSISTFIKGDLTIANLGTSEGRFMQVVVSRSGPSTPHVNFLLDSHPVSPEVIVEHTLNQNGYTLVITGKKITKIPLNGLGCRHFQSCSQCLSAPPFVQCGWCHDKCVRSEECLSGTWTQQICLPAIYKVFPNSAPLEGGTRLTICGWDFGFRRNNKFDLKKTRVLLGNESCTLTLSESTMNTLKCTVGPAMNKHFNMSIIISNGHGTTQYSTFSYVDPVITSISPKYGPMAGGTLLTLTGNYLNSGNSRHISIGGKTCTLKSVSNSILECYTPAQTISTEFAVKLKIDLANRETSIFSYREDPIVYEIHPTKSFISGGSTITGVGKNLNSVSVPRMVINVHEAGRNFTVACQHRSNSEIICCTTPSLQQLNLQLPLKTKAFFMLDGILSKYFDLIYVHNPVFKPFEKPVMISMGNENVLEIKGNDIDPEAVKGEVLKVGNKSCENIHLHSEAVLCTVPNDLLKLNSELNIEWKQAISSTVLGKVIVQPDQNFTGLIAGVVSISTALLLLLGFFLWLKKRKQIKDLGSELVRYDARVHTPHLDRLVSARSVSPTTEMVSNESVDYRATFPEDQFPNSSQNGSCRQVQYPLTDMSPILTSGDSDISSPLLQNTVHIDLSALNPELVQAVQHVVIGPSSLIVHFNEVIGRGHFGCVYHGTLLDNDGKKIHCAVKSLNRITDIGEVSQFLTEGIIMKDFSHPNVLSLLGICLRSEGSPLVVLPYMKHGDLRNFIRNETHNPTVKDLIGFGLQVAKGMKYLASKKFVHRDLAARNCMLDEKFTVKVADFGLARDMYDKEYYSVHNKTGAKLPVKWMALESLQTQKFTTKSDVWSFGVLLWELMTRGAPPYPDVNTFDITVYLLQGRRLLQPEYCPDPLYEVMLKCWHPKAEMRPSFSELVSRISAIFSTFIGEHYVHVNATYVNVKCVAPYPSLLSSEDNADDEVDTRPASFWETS
As to the kind of experiment: Kinase inhibition assay (33P transfer), c-Met. As to conditions: Table 2, kinase inhibition class; read-out: Met-1. The gist of the method:
as §2

The target of a further assay is T6, AKT (Homo sapiens, UniProt Q9Y243).
T6 construct: Kinases are expressed as either kinase domains or full length constructs; made in house
T6 sequence (Q9Y243 whole entry, the tested form may be a part): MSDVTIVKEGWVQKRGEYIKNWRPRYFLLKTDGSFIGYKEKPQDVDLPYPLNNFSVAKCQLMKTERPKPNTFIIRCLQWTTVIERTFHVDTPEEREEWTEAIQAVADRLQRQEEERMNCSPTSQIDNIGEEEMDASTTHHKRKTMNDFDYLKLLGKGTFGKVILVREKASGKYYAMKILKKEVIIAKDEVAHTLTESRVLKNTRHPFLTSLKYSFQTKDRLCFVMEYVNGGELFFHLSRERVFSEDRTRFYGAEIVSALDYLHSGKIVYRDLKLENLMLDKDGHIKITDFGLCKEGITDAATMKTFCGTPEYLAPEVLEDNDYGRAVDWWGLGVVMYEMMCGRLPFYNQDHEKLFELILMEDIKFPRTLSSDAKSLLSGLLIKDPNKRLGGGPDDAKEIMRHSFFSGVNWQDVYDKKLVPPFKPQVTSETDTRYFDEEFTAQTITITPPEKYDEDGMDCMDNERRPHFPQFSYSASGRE
As to the kind of experiment: Kinase inhibition assay (33P transfer), AKT. The note with it: Table 2, kinase inhibition class; read-out: AKT3-1. In short, it runs like this: as §1

Another assay addresses T7, Lck (Homo sapiens, UniProt P06239).
T7 construct: Kinases are expressed as either kinase domains or full length constructs; made in house
Nature of the assay: Kinase inhibition assay (33P transfer), Lck. As to conditions: Table 3; read-out: Lck-1. The gist of the method: as §1

In a further assay the target is T8, Itk (Homo sapiens, UniProt Q08881).
T8 construct: Kinases are expressed as either kinase domains or full length constructs; made in house
T8 sequence (Q08881 1-620): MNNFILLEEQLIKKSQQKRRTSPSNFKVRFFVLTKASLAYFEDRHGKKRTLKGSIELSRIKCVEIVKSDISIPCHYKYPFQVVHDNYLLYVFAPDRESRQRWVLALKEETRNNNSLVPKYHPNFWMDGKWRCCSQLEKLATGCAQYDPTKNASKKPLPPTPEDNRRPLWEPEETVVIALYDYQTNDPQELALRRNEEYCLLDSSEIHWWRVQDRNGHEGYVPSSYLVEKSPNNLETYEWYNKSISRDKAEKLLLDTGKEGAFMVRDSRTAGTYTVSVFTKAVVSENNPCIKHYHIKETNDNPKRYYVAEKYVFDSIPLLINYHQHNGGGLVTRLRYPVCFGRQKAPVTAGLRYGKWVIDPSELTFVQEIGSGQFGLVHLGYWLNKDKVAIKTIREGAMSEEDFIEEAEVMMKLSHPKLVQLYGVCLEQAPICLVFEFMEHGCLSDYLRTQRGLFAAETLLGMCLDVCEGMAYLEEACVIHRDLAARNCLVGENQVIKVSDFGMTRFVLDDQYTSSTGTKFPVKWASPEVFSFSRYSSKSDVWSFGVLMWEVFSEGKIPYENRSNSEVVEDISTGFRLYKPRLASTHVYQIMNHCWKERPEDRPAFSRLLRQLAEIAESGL
Nature of the assay: Kinase inhibition assay (33P transfer), Itk. The note with it: Table 3; read-out: Itk-1. The gist of the method:
as §2

T7 sequence (P06239 whole entry, species assumed, the tested form may be a part): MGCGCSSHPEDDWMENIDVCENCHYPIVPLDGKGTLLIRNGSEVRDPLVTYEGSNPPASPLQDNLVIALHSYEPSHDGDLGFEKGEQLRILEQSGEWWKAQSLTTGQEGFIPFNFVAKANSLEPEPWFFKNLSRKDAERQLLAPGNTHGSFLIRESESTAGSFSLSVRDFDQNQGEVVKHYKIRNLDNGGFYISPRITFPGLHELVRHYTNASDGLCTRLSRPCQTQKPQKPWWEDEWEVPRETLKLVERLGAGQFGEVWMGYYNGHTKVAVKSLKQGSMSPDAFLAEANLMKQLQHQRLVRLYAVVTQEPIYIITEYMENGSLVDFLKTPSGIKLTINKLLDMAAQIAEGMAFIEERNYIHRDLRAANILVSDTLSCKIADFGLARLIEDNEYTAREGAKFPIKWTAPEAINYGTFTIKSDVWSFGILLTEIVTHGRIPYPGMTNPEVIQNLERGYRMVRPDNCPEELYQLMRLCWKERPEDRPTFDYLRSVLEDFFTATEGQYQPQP
T3 sequence (P35968 20-1356, species assumed): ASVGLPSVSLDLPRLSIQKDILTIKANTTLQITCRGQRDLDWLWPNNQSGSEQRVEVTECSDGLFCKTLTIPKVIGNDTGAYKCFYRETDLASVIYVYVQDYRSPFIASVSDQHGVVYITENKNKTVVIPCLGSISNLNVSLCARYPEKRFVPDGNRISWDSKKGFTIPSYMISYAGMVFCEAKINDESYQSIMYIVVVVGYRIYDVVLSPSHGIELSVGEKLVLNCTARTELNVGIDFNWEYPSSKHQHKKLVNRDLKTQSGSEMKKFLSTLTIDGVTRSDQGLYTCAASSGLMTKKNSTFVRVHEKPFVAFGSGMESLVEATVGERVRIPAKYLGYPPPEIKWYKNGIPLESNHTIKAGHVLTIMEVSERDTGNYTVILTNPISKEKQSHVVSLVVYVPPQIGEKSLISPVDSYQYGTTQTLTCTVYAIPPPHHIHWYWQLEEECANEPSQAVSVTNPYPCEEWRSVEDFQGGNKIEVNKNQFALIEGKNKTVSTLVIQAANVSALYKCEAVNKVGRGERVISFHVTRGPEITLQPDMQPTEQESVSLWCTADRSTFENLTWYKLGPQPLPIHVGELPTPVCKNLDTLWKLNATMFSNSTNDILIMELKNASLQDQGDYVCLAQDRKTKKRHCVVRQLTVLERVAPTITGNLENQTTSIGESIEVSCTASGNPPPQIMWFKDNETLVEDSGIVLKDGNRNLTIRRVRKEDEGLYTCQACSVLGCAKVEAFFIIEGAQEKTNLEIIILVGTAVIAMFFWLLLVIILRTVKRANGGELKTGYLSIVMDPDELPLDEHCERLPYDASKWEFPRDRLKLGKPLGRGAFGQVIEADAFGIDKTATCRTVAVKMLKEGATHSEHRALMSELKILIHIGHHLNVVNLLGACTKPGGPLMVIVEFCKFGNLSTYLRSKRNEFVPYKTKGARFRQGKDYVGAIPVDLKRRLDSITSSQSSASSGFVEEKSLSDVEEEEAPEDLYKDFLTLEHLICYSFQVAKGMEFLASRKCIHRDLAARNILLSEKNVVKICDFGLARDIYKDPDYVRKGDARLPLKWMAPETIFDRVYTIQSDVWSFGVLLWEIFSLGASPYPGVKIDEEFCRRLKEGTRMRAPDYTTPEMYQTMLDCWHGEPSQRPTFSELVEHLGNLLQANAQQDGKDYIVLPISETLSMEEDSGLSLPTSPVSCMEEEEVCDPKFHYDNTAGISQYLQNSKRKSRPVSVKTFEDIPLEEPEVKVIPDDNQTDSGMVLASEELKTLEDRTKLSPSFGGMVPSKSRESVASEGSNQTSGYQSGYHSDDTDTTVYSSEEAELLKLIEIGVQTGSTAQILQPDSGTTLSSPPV
T4 sequence (P00533 25-1210, species assumed): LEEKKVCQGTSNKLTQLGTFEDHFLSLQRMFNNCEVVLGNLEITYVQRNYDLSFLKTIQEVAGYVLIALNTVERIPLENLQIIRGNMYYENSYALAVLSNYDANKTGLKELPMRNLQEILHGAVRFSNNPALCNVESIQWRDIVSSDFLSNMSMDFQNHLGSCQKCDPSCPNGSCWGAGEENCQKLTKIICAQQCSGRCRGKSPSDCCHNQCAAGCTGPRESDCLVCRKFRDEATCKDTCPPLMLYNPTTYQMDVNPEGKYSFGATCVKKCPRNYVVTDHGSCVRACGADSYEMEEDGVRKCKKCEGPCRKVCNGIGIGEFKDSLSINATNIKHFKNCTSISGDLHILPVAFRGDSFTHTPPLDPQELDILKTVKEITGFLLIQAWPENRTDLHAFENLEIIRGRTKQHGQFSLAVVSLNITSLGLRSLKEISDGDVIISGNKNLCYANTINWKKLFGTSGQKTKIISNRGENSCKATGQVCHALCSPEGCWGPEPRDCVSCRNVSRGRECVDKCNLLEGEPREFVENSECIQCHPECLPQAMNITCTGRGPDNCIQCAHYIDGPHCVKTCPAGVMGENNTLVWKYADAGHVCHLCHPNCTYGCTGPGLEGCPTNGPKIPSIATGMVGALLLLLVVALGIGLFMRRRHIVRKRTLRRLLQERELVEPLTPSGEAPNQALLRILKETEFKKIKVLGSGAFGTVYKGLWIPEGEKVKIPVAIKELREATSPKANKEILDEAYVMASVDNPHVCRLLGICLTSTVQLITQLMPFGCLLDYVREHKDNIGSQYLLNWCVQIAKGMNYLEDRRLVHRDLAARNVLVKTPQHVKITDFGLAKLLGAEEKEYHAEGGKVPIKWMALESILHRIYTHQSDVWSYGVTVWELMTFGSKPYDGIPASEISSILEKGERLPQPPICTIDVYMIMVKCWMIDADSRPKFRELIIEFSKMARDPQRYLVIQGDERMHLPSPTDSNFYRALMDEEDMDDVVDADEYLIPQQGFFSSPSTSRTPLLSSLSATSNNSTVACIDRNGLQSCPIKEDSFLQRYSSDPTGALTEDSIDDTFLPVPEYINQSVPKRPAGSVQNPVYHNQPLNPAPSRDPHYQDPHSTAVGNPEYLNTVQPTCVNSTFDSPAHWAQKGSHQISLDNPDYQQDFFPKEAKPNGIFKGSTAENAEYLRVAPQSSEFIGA

For the compound `OCc1ccc(Nc2ncnc(-c3ccccc3)n2)cc1` [Compound 165], the IC50 on IGFR-1, at Zap-70, on Kdr, at EGFR, on c-Met and at AKT was more than 16.2 µM throughout. Moreover, the IC50 at Lck and at Itk was more than 16.2 µM in each case.

Consider `CC(C)(C)OC(=O)NCCCNc1ncnc(-c2ccccc2)n1` [Compound 17], for which the IC50 against IGFR-1, on Zap-70, at Kdr, on EGFR, on c-Met and on AKT was more than 13.7 µM throughout. In addition, the IC50 on Lck and at Itk was more than 13.7 µM each time.

Regarding `COc1cc(Nc2ncnc(-n3c(NCCCCO)nc4ccccc43)n2)cc(OC)c1OC` [Compound 392], the IC50 at IGFR-1 is more than 9.67 µM; at Zap-70, more than 9.67 µM; at Kdr, 0.859 to 5.16 µM; on EGFR, more than 9.67 µM; on c-Met it was more than 9.67 µM; on AKT it was more than 9.67 µM. Moreover, the IC50 is 5.16 to 7.52 µM on Lck and more than 9.67 µM at Itk.

As for `Clc1cccc(Nc2ncnc(-c3cccs3)n2)c1` [Compound 360], the IC50 against IGFR-1, at Zap-70, on Kdr, on EGFR, at c-Met and at AKT was more than 15.6 µM each time. Moreover, the IC50 on Lck and on Itk was more than 15.6 µM throughout.

Consider `COc1cc(Nc2ncnc(-c3ccnc(Cl)c3)n2)cc(OC)c1OC` [Compound 331], for which the IC50 against IGFR-1, at Zap-70, at Kdr, at EGFR, at c-Met and at AKT was more than 12 µM throughout. Besides, the IC50 on Lck and at Itk was more than 12 µM each time.

Take `Clc1ncnc(Nc2ccc(OCc3ccccc3)cc2)n1` [Compound 153]: the IC50 against IGFR-1 was more than 14.4 µM; at Zap-70, more than 14.4 µM; on Kdr, 11.2 to 14.4 µM; on EGFR, more than 14.4 µM; on c-Met, more than 14.4 µM; on AKT, more than 14.4 µM. Besides, the IC50 on Lck and on Itk was more than 14.4 µM throughout.

Take `COc1cc(Nc2ncnc(Nc3ncncn3)n2)cc(OC)c1OC` [Compound 254]: the IC50 against IGFR-1, on Zap-70, at Kdr, on EGFR, at c-Met and at AKT was more than 12.6 µM throughout. The IC50 at Lck and at Itk was more than 12.6 µM in each case.

For `COc1cc(Nc2ncnc(-c3cccnc3)n2)cc(OC)c1OC` [Compound 219], the IC50 at IGFR-1 was more than 13.3 µM; on Zap-70, more than 13.3 µM; on Kdr it was 1.18 to 7.07 µM; on EGFR, more than 13.3 µM; at c-Met, more than 13.3 µM; on AKT it was more than 13.3 µM. In addition, the IC50 on Lck and on Itk was more than 13.3 µM throughout.

`COc1cc(Nc2ncnc(N3CCN(C(=O)OC(C)(C)C)CC3)n2)cc(OC)c1OC` [Compound 211]: the IC50 was more than 10.1 µM against IGFR-1; more than 10.1 µM at Zap-70; 5.38 to 7.84 µM on Kdr; more than 10.1 µM on EGFR; more than 10.1 µM on c-Met; more than 10.1 µM on AKT. Moreover, the IC50 on Lck and on Itk was more than 10.1 µM throughout.

On to `Fc1cccc(Nc2ncnc(-c3cccs3)n2)c1` [Compound 1073], for which the IC50 against IGFR-1, on Zap-70, on Kdr, at EGFR, at c-Met and on AKT was more than 16.5 µM each time. Further, the IC50 on Lck and on Itk was more than 16.5 µM throughout.

Take `COc1cc(Nc2ncnc(N3CCc4ccc([N+](=O)[O-])cc43)n2)cc(OC)c1OC` [Compound 191]: the IC50 on IGFR-1 was more than 10.6 µM; on Zap-70, more than 10.6 µM; on Kdr, 5.65 to 8.25 µM; on EGFR it was more than 10.6 µM; on c-Met, more than 10.6 µM; on AKT, more than 10.6 µM. Besides, the IC50 on Lck and on Itk was more than 10.6 µM in each case.

Turning to `COc1cc(Nc2ncnc(-c3cccs3)n2)cc(OC)c1OC` [Compound 217], the IC50 against IGFR-1 was more than 13.1 µM; at Zap-70, more than 13.1 µM; on Kdr it was 6.97 to 10.2 µM; at EGFR, more than 13.1 µM; on c-Met it was 10.2 to 13.1 µM; at AKT, more than 13.1 µM. For the same compound, the IC50 at Lck is 1.16 to 6.97 µM; on Itk it was more than 13.1 µM.

Consider `COc1cc(C)c(Nc2ncnc(-c3cccs3)n2)cc1OC` [Compound 359], for which the IC50 against IGFR-1, on Zap-70, on Kdr, at EGFR, at c-Met and at AKT was more than 13.7 µM each time. The IC50 on Lck and at Itk was more than 13.7 µM in each case.

For the compound `c1csc(-c2ncnc(Nc3ccc(N4CCOCC4)cc3)n2)c1` [Compound 349], the IC50 at IGFR-1 is more than 13.3 µM; on Zap-70 it was more than 13.3 µM; on Kdr, 10.3 to 13.3 µM; on EGFR, more than 13.3 µM; on c-Met, 10.3 to 13.3 µM; on AKT it was 10.3 to 13.3 µM. The IC50 on Lck is 1.18 to 7.07 µM; on Itk it was more than 13.3 µM.

Take `c1csc(-c2ncnc(Nc3ccncc3)n2)c1` [Compound 363]: the IC50 at IGFR-1, on Zap-70, at Kdr, at EGFR, on c-Met and on AKT was more than 17.6 µM in each case. In addition, the IC50 on Lck and on Itk was more than 17.6 µM throughout.

For the compound `O=[N+]([O-])c1cccc(Nc2ncnc(-c3cccs3)n2)c1` [Compound 352], the IC50 at IGFR-1, on Zap-70, at Kdr, on EGFR, on c-Met and at AKT was more than 15 µM throughout. Further, the IC50 at Lck and at Itk was more than 15 µM throughout.

Regarding `OCCCNc1ncnc(-c2ccccc2)n1` [Compound 971], the IC50 against IGFR-1, at Zap-70, on Kdr, at EGFR, on c-Met and on AKT was more than 19.5 µM each time. The IC50 at Lck and on Itk was more than 19.5 µM each time.

`COc1cc(Nc2ncnc(-n3c(NCCO)nc4ccccc43)n2)cc(OC)c1OC` [Compound 391]: the IC50 against IGFR-1 was more than 10.3 µM; at Zap-70, more than 10.3 µM; at Kdr it was 0.914 to 5.49 µM; on EGFR, more than 10.3 µM; at c-Met, more than 10.3 µM; at AKT it was more than 10.3 µM. The IC50 at Lck was 8 to 10.3 µM; on Itk, more than 10.3 µM.
